Here are results for 14 molecules from patent US8110660B2, “Soluble ENPP4 protein” (Ono Pharmaceutical Co., Ltd., priority 2004, dated 2012).

What all share (format): biochemical
Test [1] has as its target T1, purified soluble type ENPP5 protein (Homo sapiens, UniProt Q9UJA9).
T1 construct: signal peptide; base No. 1 to 66, mature protein; base No. 67 to 1287; made in house; host or cells: HEK293T (secreted into culture supernatant, His-Trap purified)
T1 sequence (Q9UJA9 23-429): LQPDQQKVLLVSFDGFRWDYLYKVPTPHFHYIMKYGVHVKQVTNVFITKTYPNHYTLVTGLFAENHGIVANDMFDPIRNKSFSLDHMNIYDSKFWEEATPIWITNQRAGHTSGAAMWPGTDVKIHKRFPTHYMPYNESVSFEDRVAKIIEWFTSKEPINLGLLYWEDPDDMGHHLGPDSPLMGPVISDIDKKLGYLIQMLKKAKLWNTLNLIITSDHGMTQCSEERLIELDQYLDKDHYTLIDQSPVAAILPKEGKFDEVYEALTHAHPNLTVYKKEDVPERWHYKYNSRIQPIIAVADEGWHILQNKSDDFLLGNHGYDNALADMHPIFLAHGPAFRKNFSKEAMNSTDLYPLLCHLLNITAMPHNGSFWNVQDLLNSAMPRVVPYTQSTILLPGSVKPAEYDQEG
In words: Inhibition of light-emitting substrate degradation by soluble type ENPP5 protein. The protocol: 0.2 μg of the purified soluble type ENPP5 protein was mixed in 90 μL of assay buffer (20 mM HEPES, 140 mM NaCl, 5 mM KCl, 10 mM Glucose, pH 7.5), and 10 μL of each of 10 mM pNP-PP and a solution of a test compound was added thereto, and then was kept at 37° C. for 2 hours. Then, absorption of light of 405 nm was measured and thereby, the amount of p-nitorphenol was quantitatively determined and thereby the inhibitory activity of […] pNP-PP degradation of each of the test compound was examined. By using Neurotransmitter Library Plate 10 (Purinergic & adenosines) ver. 2 (manufactured by BIOMOL Inc.) as test compounds, and the inhibitory activity of pNP-TMP degradation of each of 1 mM compounds was measured and, 70% or more of the inhibitory activity was detected in 2-Methyl-ATP, and 80% or more of the inhibitory activity was detected in ADP, UDP, and GDP.

The target in test [2] is T2, purified soluble type ENPP4 protein (Homo sapiens, UniProt Q9Y6X5).
T2 construct: signal peptide; base No. 1 to 45, mature protein; base No. 46 to 1212; made in house; host or cells: HEK293T (secreted into culture supernatant, His-Trap purified)
T2 sequence (Q9Y6X5 16-404): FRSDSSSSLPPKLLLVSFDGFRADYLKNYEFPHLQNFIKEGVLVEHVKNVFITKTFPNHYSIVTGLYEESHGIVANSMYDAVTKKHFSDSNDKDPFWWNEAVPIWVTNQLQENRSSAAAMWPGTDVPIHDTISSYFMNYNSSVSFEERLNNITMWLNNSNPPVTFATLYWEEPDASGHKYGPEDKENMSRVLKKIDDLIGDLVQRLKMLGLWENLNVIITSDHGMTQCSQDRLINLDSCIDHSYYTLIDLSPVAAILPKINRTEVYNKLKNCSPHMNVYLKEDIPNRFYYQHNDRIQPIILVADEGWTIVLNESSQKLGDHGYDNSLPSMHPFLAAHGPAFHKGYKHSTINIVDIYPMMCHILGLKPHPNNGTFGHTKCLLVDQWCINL
In words: Identification of nucleic acids to be ENPP4 substrate (HPLC). The settings on record: for degradation amount / activity of degrading by ENPP4 / degradation by ENPP4 (NMP detected as reacted product): 200 μM nucleic acid, HPLC, FIG. 15; for degradation by ENPP4 (NMP detected as reacted product): pH 8.5, 37° C., 2, 5 or 8 hours. Here is the method: (§1) 0.5 μg of the purified soluble type ENPP4 protein was mixed in 500 μL of assay buffer (20 mM HEPES, 140 mM NaCl, 5 mM KCl, 10 mM Glucose, pH 8.5), and then, each kind of nucleic acids were added thereto so that its final concentration became 200 μM. The mixture was kept at 37° C. for 2, 5, or 8 hours. Then, by using HPLC (Unison-UKC18 reversed-phase column 30×2 mm, manufactured by Imtakt Co., Ltd.) (mobile phase: 50 mM sodium phosphate buffer (pH 6.4), 5 mM tetrabutylammonium hydrogen sulfate, 1 mM EDTA, 2-30% acetonitrile), the nucleic acids were separated from the reacted solution, and the substrates and the reacted products were quantitatively determined.

Test [3] addresses T2, purified soluble type ENPP4 protein. In words: Inhibition of pNP-TMP or pNP-PP degradation by soluble type ENPP4 protein. Here is the method: 0.2 μg of the purified soluble type ENPP4 protein was mixed in 90 μL of assay buffer (20 mM HEPES, 140 mM NaCl, 5 mM KCl, 10 mM Glucose, pH 8.5), and 10 μL of each of 10 mM pNP-TMP or pNP-PP and a solution of a test compound was added thereto, and then was kept at 37° C. for 2 hours. Then, absorption of light of 405 nm was measured and thereby, the amount of p-nitorphenol was quantitatively determined and thereby the inhibitory activity of pNP-TMP or pNP-PP degradation of each test compound was examined. By using pNP-TMP and Neurotransmitter Library Plate 10 (Purinergic & adenosines) ver. […] Moreover, 60% or more of the inhibitory activity was detected in CDP-Choline, and 40% or more of the inhibitory activity was detected in P1P3-DiAdenosine-triphosphate (AP(3)A), P1P6-DiAdenosine-hexaphosphate (AP(6)A).

Test [4] deals with T3, purified soluble type ENPP6 protein (Homo sapiens, UniProt Q6UWR7).
T3 construct: signal peptide; base No. 1 to 66, mature protein; base No. 67 to 1269; made in house; host or cells: HEK293T (secreted into culture supernatant, His-Trap purified)
T3 sequence (Q6UWR7 23-423): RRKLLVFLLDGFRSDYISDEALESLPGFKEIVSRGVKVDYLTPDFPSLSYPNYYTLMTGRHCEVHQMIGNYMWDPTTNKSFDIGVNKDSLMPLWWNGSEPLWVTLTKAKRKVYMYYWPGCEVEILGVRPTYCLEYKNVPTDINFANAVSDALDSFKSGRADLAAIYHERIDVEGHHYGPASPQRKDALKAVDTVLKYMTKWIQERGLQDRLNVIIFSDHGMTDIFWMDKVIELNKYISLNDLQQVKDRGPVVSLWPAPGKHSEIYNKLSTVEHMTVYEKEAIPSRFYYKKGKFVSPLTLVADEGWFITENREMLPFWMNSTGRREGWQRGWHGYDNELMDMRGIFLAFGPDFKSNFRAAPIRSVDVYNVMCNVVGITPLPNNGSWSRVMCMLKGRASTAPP
In words: Inhibition of light-emitting substrate degradation by soluble type ENPP6 protein. Here is the method:
0.2 μg of the purified soluble type ENPP6 protein was mixed in 90 μL of assay buffer (20 mM HEPES, 140 mM NaCl, 5 mM KCl, 1 mM CaCl2, 1 mM MgCl2, 10 mM Glucose, pH 9.6), and 10 μL of each of 10 mM pNP-PP and a solution of a test compound was added thereto, and was kept at 37° C. for 2 hours. Then, absorption of light of 405 nm was measured and thereby, the amount of p-nitorphenol was quantitatively determined and thereby the inhibitory activity of […] degradation of each of the test compounds was examined. By using Neurotransmitter Library Plate 10 (Purinergic & adenosines) ver. 2, Bioactive Lipid Library ver. 3 (manufactured by BIOMOL Inc.), and various lysophospholipids as test compounds, the inhibitory activity of pNP-PP degradation was measured and, 80% or more of the inhibitory activity was detected in Glycerophosphorilcholine, and 70% or more of the inhibitory activity in Lysophosphatidylcholine, 1-Methyladenosine, 3-Deazaadenosine, ATP, and ADP(1 mM), and 60% or more of the inhibitory activity in N6-Methyladenosine, N6-Methyl-2′-deoxy-adenosine, S-Adenosyl-L-Homocysteine, and 2-MethylthioATP.

Test [5] deals with T1, purified soluble type ENPP5 protein. In words: Identification of nucleic acids to be ENPP5 substrate (HPLC). The settings on record: 200 μM nucleic acid, pH 7.5, 37° C., 2, 5 or 8 hours, FIG. 15. Here is the method: as §1, with “ENPP5” for “ENPP4”, “7.5),” for “8.5),”, “performed” for “kept”

Some results are limits rather than exact numbers.

On to `Nc1ncnc2c1ncn2[C@@H]1O[C@H](COP(=O)(O)OP(=O)(O)OP(=O)(O)O)[C@@H](O)[C@H]1O` [ATP], for which the “concentration dependence of inhibitory activity of pNP-PC degradation by ENPP5” value in test [1] (FIG. 13) was “inhibitory activity of pNP-PC degradation depending on concentration of ATP was detected”. In test [2], the “degradation amount / activity of degrading by ENPP4” value is “small” and the “degradation by ENPP4 (NMP detected as reacted product)” value (shortened to “degradation by ENPP4”) is “degraded by ENPP4”. Besides, the “inhibitory activity against ENPP4 (concluded from small degradation and high inhibition)” value in test [2] (conclusion from Examples 16 and 19) was “has an inhibitory activity against ENPP4”. The “concentration dependence of inhibitory activity against ENPP4” value in test [3] (FIG. 12, pNP-TMP degradation) was “inhibitory activity depending on concentration of ATP was detected”. As to `C[N+](C)(C)CCOP(=O)([O-])OC[C@H](O)CO` [Glycerophosphorilcholine], the “inhibitory activity of pNP-PP degradation” value in test [4] (pH 9.6, 37° C., 2 hours, 1 mM printed for ADP) is ≥ 80%. Take `Nc1ncnc2c1ncn2[C@@H]1O[C@H](COP(=O)(O)OP(=O)(O)OP(=O)(O)OP(=O)(O)OP(=O)(O)OP(=O)(O)OC[C@H]2O[C@@H](n3cnc4c(N)ncnc43)[C@H](O)[C@@H]2O)[C@@H](O)[C@H]1O` [AP(6)A, P1P6-DiAdenosine-hexaphosphate]: in test [2], the “degradation by ENPP4” value was “degraded by ENPP4”.

Regarding Lysophosphatidylcholine, the “concentration dependence of inhibitory activity of pNP-TMP degradation by ENPP6” value in test [4] (FIG. 14) is listed as “inhibitory activity of pNP-TMP degradation depending on concentration of LPC was detected”.

Turning to `Nc1ncnc2c1ncn2[C@@H]1O[C@H](COP(=O)(O)OP(=O)(O)O)[C@@H](O)[C@H]1O` [ADP], in test [5], the “degradation by ENPP5 (NMP detected as reacted product)” value is recorded as “degraded by ENPP5”. The “degradation by ENPP4” value in test [2] is “degraded by ENPP4”. Take `Nc1ncnc2c1ncn2[C@@H]1O[C@H](COP(=O)(O)OP(=O)(O)OP(=O)(O)OP(=O)(O)OC[C@H]2O[C@@H](n3cnc4c(N)ncnc43)[C@H](O)[C@@H]2O)[C@@H](O)[C@H]1O` [AP(4)A, P1P4-DiAdenosine-tetraphosphate]: in test [2], the “degradation amount / activity of degrading by ENPP4” value is reported as “lower than the activity of degrading Ap(3)A” and the “degradation by ENPP4” value is listed as “degraded by ENPP4”. diadenosine 5-phosphate [Ap(5)A]: the “degradation by ENPP4” value in test [2] is recorded as “degraded by ENPP4”. On the same count and under the same terms, with `Nc1ccn([C@@H]2O[C@H](COP(=O)(O)OP(=O)(O)OP(=O)(O)O)[C@@H](O)[C@H]2O)c(=O)n1` [CTP] the entry was “degraded by ENPP4”. As for `C[N+](C)(C)CCOP(=O)(O)OP(=O)([O-])OC[C@H]1O[C@@H](n2ccc(N)nc2=O)[C@H](O)[C@@H]1O` [CDP-Choline], the “degradation by ENPP5 (NMP detected as reacted product)” value in test [5] is on record as “degraded by ENPP5”. For the same molecule, the “degradation by ENPP4” value in test [2] is on record as “degraded by ENPP4”. In addition, in test [3] (1 mM compound, pH 8.5, 37° C., 2 hours, FIG. 11 (pNP-TMP), read-out: inhibitory activity of pNP-TMP or pNP-PP degradation), the inhibition at 1000 µM was ≥ 60%. Turning to `Nc1ncnc2c1ncn2[C@@H]1O[C@H](COP(=O)(O)OP(=O)(O)OP(=O)(O)OC[C@H]2O[C@@H](n3cnc4c(N)ncnc43)[C@H](O)[C@@H]2O)[C@@H](O)[C@H]1O` [AP(3)A, P1P3-DiAdenosine-triphosphate], the “degradation by ENPP4” value in test [2] is listed as “degraded by ENPP4”. In the case of `Cc1nc(N)c2ncn(C3OC(COP(=O)(O)OP(=O)(O)OP(=O)(O)O)C(O)C3O)c2n1` (centres unmarked) [2-Methyl-ATP], in test [1] (1 mM compound, pH 7.5, 37° C., 2 hours), the “inhibitory activity of pNP-TMP degradation” value is ≥ 70%.

As for `O=c1ccn([C@@H]2O[C@H](COP(=O)(O)OP(=O)(O)O)[C@@H](O)[C@H]2O)c(=O)[nH]1` [UDP], the “degradation by ENPP5 (NMP detected as reacted product)” value in test [5] is on record as “degraded by ENPP5”. For the same molecule, in test [2], the “degradation by ENPP4” value is “degraded by ENPP4”. For `Nc1ccn([C@@H]2O[C@H](COP(=O)(O)OP(=O)(O)O)[C@@H](O)[C@H]2O)c(=O)n1` [CDP], the “degradation by ENPP4” value in test [2] was “degraded by ENPP4”.

Take `O=c1ccn([C@@H]2O[C@H](COP(=O)(O)OP(=O)(O)OP(=O)(O)O)[C@@H](O)[C@H]2O)c(=O)[nH]1` [UTP]: the “degradation by ENPP4” value in test [2] was “degraded by ENPP4”.
